Experimental data reported in ChEMBL document CHEMBL1143875, “Synthesis and structure-activity relationships of thiadiazole-derivatives as potent and orally active peroxisome proliferator-activated receptors alpha/delta dual agonists” (Bioorg Med Chem, 2008).
Activity calls are given as the source filed them. No cut-off for these calls is given here.

Assays:
[1] = Cmax in ob/ob C57BL/6J-leptin deficient obese mouse at 0.1 mg/kg administered as multiple dose after 11 days; type: ADME, organism-based; parameters: dose 0.1 mg/kg; settings: in vivo
Mus musculus [2] = test: […] effect of ob/ob C57BL/6J-leptin deficient obese mouse assessed as reduction in triglyceride level at 0.1 to 3 mg/kg, po after 11 days; type: functional; parameters: scale not given: the % may be the effect or the level left; settings: dose mg/kg 0.1-3
[3] = AUC in Sprague-Dawley rat at 3 mg/kg administered as multiple dose after 8 days; type: ADME, organism-based; parameters: dose 3 mg/kg; settings: plasma
Rattus norvegicus [4] = test: Increase in HDL cholesterol level in po dosed hypercholesterolemic Sprague-Dawley rat serum after 8 days; type: functional
Mus musculus [5] = test: Decrease in non esterified free fatty acid level i in po dosed hApoA1 transgenic mouse after 7 days; type: functional, organism-based
[6] = Induction of CPT1 gene expression in human skeletal muscle cells at 1 nM by RT-PCR; type: functional
[7] = Activity at retinoic acid receptor
Mus musculus [8] = test: […] effect of ob/ob C57BL/6J-leptin deficient obese mouse assessed as reduction in body weight at 0.1 to 3 mg/kg, po after 11 days; type: functional, organism-based
Canis familiaris = test: Increase in aspartate aminotransferase level in Beagle dog serum at 10 mg/kg, po/day after 7 days; type: functional, Canis lupus familiaris
[9] = biological target: T1, Bile acid receptor (Homo sapiens) (UniProt Q96RI1); test: Activity at farnesoid X receptor
T1 sequence (whole entry): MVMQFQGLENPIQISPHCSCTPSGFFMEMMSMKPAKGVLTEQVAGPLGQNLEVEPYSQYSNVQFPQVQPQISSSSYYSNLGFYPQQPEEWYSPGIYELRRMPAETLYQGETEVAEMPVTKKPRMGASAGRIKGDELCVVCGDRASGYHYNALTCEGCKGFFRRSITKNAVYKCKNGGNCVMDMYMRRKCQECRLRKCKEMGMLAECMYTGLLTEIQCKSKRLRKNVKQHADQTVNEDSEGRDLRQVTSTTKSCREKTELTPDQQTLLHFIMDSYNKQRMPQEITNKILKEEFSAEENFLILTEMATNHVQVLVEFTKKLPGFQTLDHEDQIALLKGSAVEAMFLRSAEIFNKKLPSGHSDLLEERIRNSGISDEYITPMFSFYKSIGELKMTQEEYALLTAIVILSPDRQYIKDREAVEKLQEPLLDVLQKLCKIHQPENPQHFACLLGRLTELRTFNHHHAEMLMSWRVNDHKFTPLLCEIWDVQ

[10] = Cmax in Sprague-Dawley rat at 3 mg/kg administered as multiple dose after 8 days; type: ADME, organism-based; parameters: dose 3 mg/kg; settings: in vivo
[11] = biological target: T2, Peroxisome proliferator-activated receptor delta (Homo sapiens, UniProt Q03181); test: Agonist activity at human PPARdelta-Gal4 in HEK293 cells by luciferase reporter assay; type: functional, cell-based
T2 sequence (Q03181 whole entry): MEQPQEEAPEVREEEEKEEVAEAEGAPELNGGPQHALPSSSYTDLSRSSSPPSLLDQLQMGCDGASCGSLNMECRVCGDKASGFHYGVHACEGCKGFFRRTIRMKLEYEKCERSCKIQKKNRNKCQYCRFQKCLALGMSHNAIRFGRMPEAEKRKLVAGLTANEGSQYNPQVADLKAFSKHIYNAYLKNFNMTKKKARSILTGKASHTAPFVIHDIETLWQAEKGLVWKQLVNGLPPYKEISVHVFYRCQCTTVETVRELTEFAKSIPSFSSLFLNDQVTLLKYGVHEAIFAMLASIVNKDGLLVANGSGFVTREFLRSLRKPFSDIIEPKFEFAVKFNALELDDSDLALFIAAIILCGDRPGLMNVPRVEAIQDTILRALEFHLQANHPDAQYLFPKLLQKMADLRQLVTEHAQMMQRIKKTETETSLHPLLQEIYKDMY

Rattus norvegicus [12] = test: Decrease in total cholesterol level in hypercholesterolemic Sprague-Dawley rat serum at 0.1 to 1 mg/kg, po after 8 days; type: functional; settings: dose mg/kg 0.1-1
[13] = AUC in Beagle dog at 3 mg/kg administered as multiple dose after 7 days; type: ADME, organism-based, Canis lupus familiaris; parameters: dose 3 mg/kg; settings: plasma
[14] = Induction of CPT1 gene expression in human skeletal muscle cells at 1000 nM by RT-PCR; type: functional
[15] = Induction of ABCA1 gene expression in human skeletal muscle cells at 1 nM by RT-PCR; type: functional
[16] = Cmax in ob/ob C57BL/6J-leptin deficient obese mouse at 0.3 mg/kg administered as multiple dose after 11 days; type: ADME, organism-based; parameters: dose 0.3 mg/kg; settings: in vivo
[17] = Cmax in ob/ob C57BL/6J-leptin deficient obese mouse at 3 mg/kg administered as multiple dose after 11 days; type: ADME, organism-based; parameters: dose 3 mg/kg; settings: in vivo
[18] = biological target: T3, Glucocorticoid receptor (Homo sapiens) (UniProt P04150); test: Activity at glucocorticoid receptor
T3 sequence (whole entry): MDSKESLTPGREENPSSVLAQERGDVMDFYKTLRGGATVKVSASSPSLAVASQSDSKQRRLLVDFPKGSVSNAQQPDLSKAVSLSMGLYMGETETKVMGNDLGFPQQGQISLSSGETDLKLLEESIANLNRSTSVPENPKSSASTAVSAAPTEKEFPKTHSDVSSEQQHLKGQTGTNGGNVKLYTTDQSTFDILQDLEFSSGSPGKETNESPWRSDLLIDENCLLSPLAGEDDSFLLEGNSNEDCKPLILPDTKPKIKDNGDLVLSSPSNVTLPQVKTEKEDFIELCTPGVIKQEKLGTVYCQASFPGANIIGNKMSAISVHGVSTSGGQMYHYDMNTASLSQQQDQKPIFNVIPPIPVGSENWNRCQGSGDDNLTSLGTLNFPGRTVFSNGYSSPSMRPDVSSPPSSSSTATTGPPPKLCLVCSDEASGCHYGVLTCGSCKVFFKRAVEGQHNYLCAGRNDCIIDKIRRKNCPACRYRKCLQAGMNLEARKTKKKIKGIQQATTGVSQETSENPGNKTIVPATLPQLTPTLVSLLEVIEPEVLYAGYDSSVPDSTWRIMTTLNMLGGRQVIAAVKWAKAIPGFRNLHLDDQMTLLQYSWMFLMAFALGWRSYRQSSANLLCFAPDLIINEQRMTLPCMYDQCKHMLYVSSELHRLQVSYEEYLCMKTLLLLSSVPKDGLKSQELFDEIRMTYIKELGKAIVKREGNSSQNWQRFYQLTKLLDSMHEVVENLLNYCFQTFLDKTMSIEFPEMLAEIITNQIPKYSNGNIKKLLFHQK

[19] = Induction of Pa9 gene expression in human skeletal muscle cells at 1 nM by RT-PCR; type: functional
[20] = AUC in Sprague-Dawley rat at 0.1 mg/kg administered as multiple dose after 8 days; type: ADME, organism-based; parameters: dose 0.1 mg/kg; settings: plasma
[21] = Inhibition of cytochrome P450 in human liver microsome; type: ADME, microsomes
[22] = Half life in ob/ob C57BL/6J-leptin deficient obese mouse at 3 mg/kg administered as multiple dose after 11 days; type: ADME, organism-based; parameters: dose 3 mg/kg; settings: in vivo
[23] = Half life in ob/ob C57BL/6J-leptin deficient obese mouse at 3 mg/kg administered as single dose on day 11; type: ADME, organism-based; parameters: dose 3 mg/kg; settings: in vivo
Rattus norvegicus [24] = test: Decrease in triglyceride level in po dosed hypercholesterolemic Sprague-Dawley rat serum after 8 days; type: functional, organism-based
[25] = Cmax in Beagle dog at 10 mg/kg administered as multiple dose after 7 days; type: ADME, organism-based, Canis lupus familiaris; parameters: dose 10 mg/kg; settings: in vivo

Cmax [1]: 480 ng/mL
AUC at 192 h [3]: 27100 ng·h/mL
Activity [7]: inactive
Activity [9]: inactive
Cmax [10]: 2000 ng/mL
EC50 [11]: 8 nM
AUC at 168 h [13]: 24100 ng·h/mL
Cmax [16]: 1840 ng/mL
Cmax [17]: 26300 ng/mL
Activity [18]: inactive
AUC at 192 h [20]: 738 ng·h/mL
IC50 [21]: > 30000 nM
half-life [22]: 6.7 h
half-life [23]: 5.1 h
Cmax [25]: 10100 ng/mL
Structure (SMILES): Cc1cc(SCc2nc(-c3ccc(Cl)c(Cl)c3)ns2)ccc1OC(C)(C)C(=O)O
Activity (Mus musculus [2]): 83%
Activity (Rattus norvegicus [4]): 45 mg/dL
Activity (Mus musculus [5]): Active
Fold change [6]: 3
Activity (Mus musculus [8]): Active
Fold change (Canis familiaris): 1.7
Activity (Rattus norvegicus [12]): 263 mg/dL
Fold change [14]: 7.8
Fold change [15]: 1.5
Fold change [19]: 3.8
Activity (Rattus norvegicus [24]): Dose-dependent effect
